Laboratory results reported in patent publication US20260193242A1, “USEFUL COMPOUNDS FOR MODULATING INFLAMMATION” (FLAGSHIP PIONEERING INNOVATIONS VI, LLC, priority 2022, published 2026).

What was measured:
[1] = test system: R848-driven IRF reporter (Lucia luciferase, ISG54 promoter/IFN-stimulated response elements) in THP-1 cells; assay: TLR7/8 (R848) stimulated interferon response element reporter gene assay in THP1-Dual cells; format: cell-based; conditions: Homo sapiens, THP-1, 10 μM compound, 1 μM R848, THP1-Dual cells; read-out: R848-driven IRF reporter gene assay (Percent inhibition at 10 μM)
Description: (§1) Compounds described herein are added to the human leukemic monocyte-like cell line THP-1 for bioactivity assessment. THP1-Dual cells (InvivoGen, San Diego, CA) feature the Lucia gene, a secreted luciferase reporter gene, under the control of an ISG54 minimal promoter in conjunction with five IFN-stimulated response elements. THP1-Dual cells also express a secreted embryonic alkaline phosphatase (SEAP) reporter gene driven by an IFN-β minimal promoter fused to five copies of the NF-κB consensus transcriptional response element and three copies of the c-Rel binding site. As a result, THP1-Dual cells allow the simultaneous study of the NF-κB pathway, by monitoring the activity of SEAP, and the IRF pathway, by assessing the activity of Lucia luciferase.
(§2) THP-1 dual reporter cells were grown in RPMI 1640 culture medium with 2 mM L-glutamine, 25 mM HEPES, 10% heat-inactivated fetal bovine serum, 100 μg/ml Normocin antibiotic (InvivoGen), Pen-Strep antibiotic (100 U/ml-100 μg/ml, InvivoGen). On the day of the assay, cells were seeded in a 384 flat-bottom well plate at 25,000 cells/well and incubated for 2 hours. Cells were then incubated with 10 μM of the compounds described herein or with 1 μM of IKK-16 (Selleck), a potent inhibitor of IκB kinases (IKKs) or with DMSO (vehicle control) for 2 hours, followed by the addition of the synthetic TLR7/8 agonist R848 at 1 μM and incubation for 16 hours. After incubation was concluded, the cultures supernatants were collected and IRF related activity was assessed by measurement of the Lucia luciferase, using Quanti-Luc assay (InvivoGen). NF-κB pathway activity was assessed by quantifying SEAP using Quanti-Blue assay (InvivoGen).

[2] = test system: LPS induced septic shock, C57/B6L mice; assay: LPS induced septic shock model in mice; format: in vivo; conditions: 30 mg/kg PO in Phosal 50, 30 min before LPS 1 mg/kg, plasma 2 hours after LPS, vs vehicle
Description: In the LPS induced septic shock model in mice, the TLR4 agonist LPS is injected into the peritoneal cavity of mice, inducing production of pro-inflammatory cytokines that can be measured in blood two hours later (FIG. 2).
Female C57/B6L mice, 5 mice in each group, were injected with LPS (1 mg/kg) to induce septic shock 30 minutes after oral administration of compounds described herein (formulated in Phosal 50) or the controls dexamethasone (formulated in saline), a corticosteroid, and MCC950 (formulated in 0.5% methylcellulose), an inflammasome inhibitor. The mice were euthanized 2 hours after LPS stimulation, and the whole blood was drawn, processed to plasma, and snap frozen. Cytokine levels in plasma were determined by cytometric bead array assay.

[3] = test system: TNBS-induced colitis, Balb/c mice; assay: TNBS-induced model of colitis in mice, dosing from day -1, prophylactic mode; format: in vivo
Description: (§3) Female Balb/c mice aged 8 weeks and weighing 18-20 g were housed under standard conditions. The mice were divided into groups with 8-10 mice in each group by body weight. Mice in sham group received intracolonic injection with 50% ethanol (0.1 mL) at day 0, whereas mice in other Trinitrobenzene sulfonic acid (TNBS) colitis model groups received intracolonic injection of 2% TNBS solution in ethanol (0.1 mL) at day 0. The reference compound Mesalazine (Selleck) and test articles described here were dosed from day-1 to day 6. Day 6 was the endpoint, and samples were immediately harvested for the last endpoint. Mesalazine was dissolved in distilled water (pH 7.0) and test articles were dissolved in Phosal 50 PG for delivery by oral gavage.
As noted, dosing of the compounds described herein, as well as the positive control mesalamine, began one day before TNBS administration. Animals in this scenario have not yet developed colitis symptoms before administration of test articles. For this reason, we refer to these conditions as “prophylactic mode”.
(§4) Body weight and Disease Activity Index (DAI) scores were recorded daily to assess the colitis. DAI score was the sum of the weight loss score, stool score and bleeding sub-scores. A blinded scoring system was employed to assess the colitis. The DAI scorer blinded to the group information and animal ID was responsible for the stool consistency and bleeding evaluations. If there was no blood visible with naked eyes, the Fecal occult blood (FOB) test was performed with a fecal occult blood test strip (the improved pyramidon method).
(§5) Colon tissue morphology, damage and healing were assessed by histopathology. The colons were harvested, mesentery and adipose tissue were carefully removed, and internal contents were removed by rinsing with cold PBS. The colons were Swiss-rolled and fixed in neutralized paraformaldehyde followed by H&E staining. Clinical pathologists reviewed the H&E staining and scored blinded with animal ID. The pathological scoring standards were: crypt architecture (normal, 0-severe crypt distortion with loss of entire crypts, 3), degree of inflammatory cell infiltration (normal, 0-dense inflammatory infiltrate, 3), muscle thickening (base of crypt sits on the muscularis mucosae, 0-marked muscle thickening present, 3), goblet cell depletion (absent, 0-present, 1) and crypt abscess (absent, 0-present, 1).
The plasma was collected at Day-1 for PK and cytokine (IL-1ß and IL-6) analysis by mandibular venipuncture.
(§6) The data was compared by ANOVA with post-hoc Dunnett's multiple comparisons test using Graph Pad Prism 7.0 software (San Diego, CA, USA). P-value<0.05 was considered as statistically significant difference. For pairwise comparison of histology scores and cytokines, unpaired t-test was used to calculate statistical significance. Data was expressed as mean±standard error of mean. In figures, statistical significance is denoted by asterisks: *p<0.05 **p<0.01 ***p<0.005, ****p<0.0001.

[4] = test system: TNBS-induced colitis, Balb/c mice; assay: TNBS-induced model of colitis in mice, dosing from day 2, therapeutic mode; format: in vivo
Description: as §3, §4, §5, §6
Procedures were identical to those in Example 26, except that dosing of the compounds described herein, as well as the positive control mesalamine, began on the second day after TNBS administration, as diagrammed in FIG. 18. Animals in this scenario have developed colitis symptoms before administration of test articles. This is more similar to the clinical scenario with patients with inflammatory bowel disorder presenting with symptoms. For this reason, we refer to these conditions as “therapeutic mode”.

[5] = test system: R848-driven NFκB reporter (SEAP) in THP-1 cells; assay: TLR7/8 (R848) stimulated NFκB reporter gene assay in THP1-Dual cells; format: cell-based; conditions: Homo sapiens, THP-1, 10 μM compound, 1 μM R848, THP1-Dual cells; read-out: R848-driven NFκB reporter gene assay (Percent inhibition at 10 μM)
Description: as §1, §2

[6] = 1, 3 and 10 mg/kg PO, QD, vs Vehicle group
[7] = 30 mg/kg PO, QD, dosing from day 2
[8] = 30 mg/kg PO, QD, dosing from day 2, vs Vehicle group

`CN1[C@@H](C(=O)O)CC[C@H]1[C@@H]1CSC(c2ccccc2O)=N1` [Compound I-4, (2R,5S)-5-((R)-2-(2-hydroxyphenyl)-4,5-dihydrothiazol-4-yl)-1-methylpyrrolidine-2-carboxylic acid] was tested, and the inhibition at 10 µM [1] was no less than 50%, the IFNγ in plasma [2] was “statistically significant decreases” and the IL-12p70 in plasma [2] was “statistically significant decreases”. The TNFα in plasma [2] was “statistically significant decreases”, the “body weight (% initial weight) recovery” value ([3]; 30 mg/kg, PO, QD, day -1 to day 6) was “faster recovery rate” and the total histology scores ([3]; 1, 3 and 10 mg/kg PO, QD) was “lower”. The “Disease Activity Index (DAI) scores” value ([3]; 1, 3 and 10 mg/kg PO, QD, day -1 to day 6) was “dose-dependent improvement”, the IL-1ß in plasma [3, 6] was “decreased” and the IL-6 in plasma [3, 6] was “decreased”. The “pathological score (crypt structure failure, inflammatory cell infiltration)” value ([3]; 1, 3 and 10 mg/kg PO, QD, H&E colon) was “lower”, the ED50 ([3]; Mus musculus, 144 h, PO, QD, day -1 to day 6, read-out: dose for half maximal effect or ED50 (DAI score at Day 6)) was 15 mg/kg and the “colon recovery and mucosal healing” value ([3]; in a dose-dependent manner, prophylactic mode) was “promoted the colon recovery and mucosal healing”. For the same compound, the “Disease Activity Index (DAI) scores” value [4, 7] was “improvement”, the “body weight (% initial weight) recovery” value [4, 7] was “faster recovery rate” and the total histology scores [4, 7] was “lower”. For the same compound, the IL-1B in plasma [4, 8] was “decreased”, the IL-6 in plasma [4, 8] was “decreased” and the “colon recovery and mucosal healing” value ([4]; therapeutic mode) was “promoted the colon recovery and mucosal healing”. It also gave an inhibition at 10 µM [5] of no less than 50%.
